Experiments:
[1] = biological target: G protein-coupled receptor kinase 4 (Homo sapiens) (UniProt P32298); assay: Residual activity of GRK4 at 0.1 uM by microplate scintillation counting
[2] = biological target: Homeodomain-interacting protein kinase 1 (Homo sapiens) (UniProt Q86Z02); assay: Residual activity of HIPK1 at 0.1 uM by microplate scintillation counting
[3] = biological target: Macrophage-stimulating protein receptor (Homo sapiens) (UniProt Q04912); assay: Residual activity of RON at 1 uM by microplate scintillation counting
[4] = biological target: Cyclin-dependent kinase 2/cyclin A (Homo sapiens) (UniProt P24941+P20248+P78396); assay: Residual activity of CDK2/Cyclin A at 1 uM by microplate scintillation counting; format: protein-complex assay
[5] = biological target: T1, NUAK family SNF1-like kinase 1 (Homo sapiens) (UniProt O60285); assay: Residual activity of ARK5 at 0.1 uM by microplate scintillation counting
T1 sequence (whole entry): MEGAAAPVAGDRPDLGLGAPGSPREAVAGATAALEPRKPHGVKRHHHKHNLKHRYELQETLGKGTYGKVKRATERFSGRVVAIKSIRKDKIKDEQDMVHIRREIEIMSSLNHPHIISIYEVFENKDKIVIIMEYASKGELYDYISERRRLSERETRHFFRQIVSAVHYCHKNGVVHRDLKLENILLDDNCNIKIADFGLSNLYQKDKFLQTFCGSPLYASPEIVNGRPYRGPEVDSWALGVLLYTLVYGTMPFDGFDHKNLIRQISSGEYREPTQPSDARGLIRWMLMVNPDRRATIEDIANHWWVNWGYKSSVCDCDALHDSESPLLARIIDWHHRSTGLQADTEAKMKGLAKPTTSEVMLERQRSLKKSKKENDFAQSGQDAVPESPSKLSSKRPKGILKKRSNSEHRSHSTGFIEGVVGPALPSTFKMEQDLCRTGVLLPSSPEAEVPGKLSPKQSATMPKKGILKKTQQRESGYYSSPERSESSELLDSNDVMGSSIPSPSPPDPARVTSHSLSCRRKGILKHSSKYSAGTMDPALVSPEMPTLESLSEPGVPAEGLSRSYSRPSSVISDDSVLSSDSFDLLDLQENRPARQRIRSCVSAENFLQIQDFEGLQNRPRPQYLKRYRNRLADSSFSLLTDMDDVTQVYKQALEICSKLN

[6] = biological target: Mitogen-activated protein kinase 14 (Homo sapiens) (UniProt Q16539); assay: Residual activity of p38alpha at 10 uM by microplate scintillation counting
[7] = biological target: T2, Serine/threonine-protein kinase 17A (Homo sapiens) (UniProt Q9UEE5); assay: Residual activity of STK17A at 10 uM by microplate scintillation counting
T2 sequence (whole entry): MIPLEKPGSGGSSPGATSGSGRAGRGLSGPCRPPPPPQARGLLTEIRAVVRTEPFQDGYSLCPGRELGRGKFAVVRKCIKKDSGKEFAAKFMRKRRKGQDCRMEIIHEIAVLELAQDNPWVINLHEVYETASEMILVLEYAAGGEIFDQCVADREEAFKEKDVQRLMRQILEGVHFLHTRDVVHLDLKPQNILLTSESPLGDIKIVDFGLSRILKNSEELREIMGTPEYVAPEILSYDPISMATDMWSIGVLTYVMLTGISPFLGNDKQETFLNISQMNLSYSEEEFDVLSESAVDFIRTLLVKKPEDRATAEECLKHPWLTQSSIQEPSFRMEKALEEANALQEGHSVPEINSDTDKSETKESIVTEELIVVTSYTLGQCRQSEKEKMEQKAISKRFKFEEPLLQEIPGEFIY

[8] = biological target: T3, Serine/threonine-protein kinase Nek11 (Homo sapiens) (UniProt Q8NG66); assay: Residual activity of NEK11 at 1 uM by microplate scintillation counting
T3 sequence (whole entry): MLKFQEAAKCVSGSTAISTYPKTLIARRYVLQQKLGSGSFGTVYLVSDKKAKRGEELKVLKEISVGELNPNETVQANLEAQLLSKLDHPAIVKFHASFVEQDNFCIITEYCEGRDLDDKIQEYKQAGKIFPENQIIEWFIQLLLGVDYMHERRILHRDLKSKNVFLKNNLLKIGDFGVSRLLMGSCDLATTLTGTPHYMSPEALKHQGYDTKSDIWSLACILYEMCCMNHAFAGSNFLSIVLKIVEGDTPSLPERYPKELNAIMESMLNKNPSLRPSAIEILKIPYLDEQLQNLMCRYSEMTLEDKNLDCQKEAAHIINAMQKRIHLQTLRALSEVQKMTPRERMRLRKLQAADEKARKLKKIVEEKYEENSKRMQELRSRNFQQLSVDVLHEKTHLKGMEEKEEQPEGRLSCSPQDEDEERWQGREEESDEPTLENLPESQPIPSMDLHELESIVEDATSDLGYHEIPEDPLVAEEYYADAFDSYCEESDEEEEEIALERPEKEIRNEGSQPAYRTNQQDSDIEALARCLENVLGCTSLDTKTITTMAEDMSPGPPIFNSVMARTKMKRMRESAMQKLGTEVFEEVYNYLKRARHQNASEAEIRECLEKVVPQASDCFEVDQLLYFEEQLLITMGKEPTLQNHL

[9] = biological target: Insulin-like growth factor 1 receptor (Homo sapiens) (UniProt P08069); assay: Residual activity of IGF1R at 1 uM by microplate scintillation counting
Insulin-like growth factor 1 receptor (Homo sapiens), sequence (P08069 31-736 limits assumed): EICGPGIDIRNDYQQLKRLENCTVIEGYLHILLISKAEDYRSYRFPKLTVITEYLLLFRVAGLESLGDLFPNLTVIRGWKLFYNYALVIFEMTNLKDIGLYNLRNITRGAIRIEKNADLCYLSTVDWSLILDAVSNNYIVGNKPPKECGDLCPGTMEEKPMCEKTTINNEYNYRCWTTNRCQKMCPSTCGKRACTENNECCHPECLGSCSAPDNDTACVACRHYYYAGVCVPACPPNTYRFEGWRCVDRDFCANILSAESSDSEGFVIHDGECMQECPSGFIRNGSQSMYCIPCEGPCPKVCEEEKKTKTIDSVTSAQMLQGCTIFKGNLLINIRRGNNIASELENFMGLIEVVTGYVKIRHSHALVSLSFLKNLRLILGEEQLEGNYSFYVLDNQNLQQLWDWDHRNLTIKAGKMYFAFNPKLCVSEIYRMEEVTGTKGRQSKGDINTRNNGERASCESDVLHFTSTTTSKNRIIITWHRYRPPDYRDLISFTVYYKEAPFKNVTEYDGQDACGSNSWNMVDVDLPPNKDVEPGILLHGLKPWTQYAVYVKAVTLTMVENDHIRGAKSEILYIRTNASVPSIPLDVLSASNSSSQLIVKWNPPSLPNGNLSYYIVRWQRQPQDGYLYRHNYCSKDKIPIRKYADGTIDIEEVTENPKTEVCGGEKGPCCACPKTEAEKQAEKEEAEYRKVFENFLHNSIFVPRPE
Insulin-like growth factor 1 receptor (Homo sapiens), sequence (P08069 741-1367 limits assumed): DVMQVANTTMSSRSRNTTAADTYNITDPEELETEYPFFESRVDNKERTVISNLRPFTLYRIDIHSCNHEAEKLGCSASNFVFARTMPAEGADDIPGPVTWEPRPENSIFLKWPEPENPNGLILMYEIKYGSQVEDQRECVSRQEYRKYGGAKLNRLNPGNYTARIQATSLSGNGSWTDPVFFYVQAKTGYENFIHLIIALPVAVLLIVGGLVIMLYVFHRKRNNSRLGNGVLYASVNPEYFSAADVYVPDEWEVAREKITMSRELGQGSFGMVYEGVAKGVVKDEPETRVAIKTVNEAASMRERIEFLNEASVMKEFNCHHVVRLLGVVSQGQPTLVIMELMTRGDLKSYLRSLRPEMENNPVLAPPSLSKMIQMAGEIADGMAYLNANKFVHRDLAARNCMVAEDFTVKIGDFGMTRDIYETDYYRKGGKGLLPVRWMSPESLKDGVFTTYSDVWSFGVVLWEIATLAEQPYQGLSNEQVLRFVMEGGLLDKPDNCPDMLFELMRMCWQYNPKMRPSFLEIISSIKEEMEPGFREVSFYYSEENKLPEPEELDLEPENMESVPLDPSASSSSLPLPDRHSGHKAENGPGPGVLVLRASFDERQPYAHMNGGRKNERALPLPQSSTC

Macrophage-stimulating protein receptor (Homo sapiens), sequence (Q04912 25-304 limits assumed): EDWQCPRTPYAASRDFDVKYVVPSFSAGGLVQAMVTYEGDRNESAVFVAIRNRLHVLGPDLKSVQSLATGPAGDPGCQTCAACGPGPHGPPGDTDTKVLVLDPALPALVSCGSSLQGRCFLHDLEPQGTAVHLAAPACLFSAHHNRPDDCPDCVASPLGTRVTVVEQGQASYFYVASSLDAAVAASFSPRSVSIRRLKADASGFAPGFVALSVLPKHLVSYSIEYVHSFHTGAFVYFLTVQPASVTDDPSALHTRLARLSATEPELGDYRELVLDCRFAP
Macrophage-stimulating protein receptor (Homo sapiens), sequence (Q04912 310-1400 limits assumed): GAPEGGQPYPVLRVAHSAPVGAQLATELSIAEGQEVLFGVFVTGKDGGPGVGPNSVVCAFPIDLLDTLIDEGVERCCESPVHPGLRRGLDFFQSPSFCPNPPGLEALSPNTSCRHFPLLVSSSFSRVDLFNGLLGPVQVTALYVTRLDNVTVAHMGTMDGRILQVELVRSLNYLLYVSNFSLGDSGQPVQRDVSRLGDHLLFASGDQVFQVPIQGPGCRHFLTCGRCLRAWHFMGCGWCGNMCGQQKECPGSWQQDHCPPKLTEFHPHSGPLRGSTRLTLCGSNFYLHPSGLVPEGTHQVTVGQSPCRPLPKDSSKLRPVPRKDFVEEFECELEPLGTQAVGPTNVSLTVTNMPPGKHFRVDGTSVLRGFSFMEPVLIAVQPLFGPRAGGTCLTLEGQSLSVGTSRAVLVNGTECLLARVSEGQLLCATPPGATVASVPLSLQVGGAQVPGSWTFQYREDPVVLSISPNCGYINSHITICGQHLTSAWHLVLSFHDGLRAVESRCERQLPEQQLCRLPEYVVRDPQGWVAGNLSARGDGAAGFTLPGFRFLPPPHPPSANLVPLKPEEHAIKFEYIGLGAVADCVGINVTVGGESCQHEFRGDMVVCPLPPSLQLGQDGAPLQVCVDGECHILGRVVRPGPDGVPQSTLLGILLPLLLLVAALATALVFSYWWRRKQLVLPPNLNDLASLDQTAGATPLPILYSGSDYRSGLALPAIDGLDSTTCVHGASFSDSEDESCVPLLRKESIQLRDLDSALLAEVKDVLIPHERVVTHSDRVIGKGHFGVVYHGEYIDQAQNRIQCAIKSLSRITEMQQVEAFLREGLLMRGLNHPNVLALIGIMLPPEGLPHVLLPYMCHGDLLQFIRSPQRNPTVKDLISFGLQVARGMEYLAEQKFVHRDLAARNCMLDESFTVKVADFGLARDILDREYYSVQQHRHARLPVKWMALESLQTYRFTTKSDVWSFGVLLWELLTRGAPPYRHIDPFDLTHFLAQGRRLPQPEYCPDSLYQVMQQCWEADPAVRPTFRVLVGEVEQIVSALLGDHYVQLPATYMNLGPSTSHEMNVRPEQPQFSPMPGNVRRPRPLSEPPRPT
Homeodomain-interacting protein kinase 1 (Homo sapiens), sequence (Q86Z02 whole entry, looked up): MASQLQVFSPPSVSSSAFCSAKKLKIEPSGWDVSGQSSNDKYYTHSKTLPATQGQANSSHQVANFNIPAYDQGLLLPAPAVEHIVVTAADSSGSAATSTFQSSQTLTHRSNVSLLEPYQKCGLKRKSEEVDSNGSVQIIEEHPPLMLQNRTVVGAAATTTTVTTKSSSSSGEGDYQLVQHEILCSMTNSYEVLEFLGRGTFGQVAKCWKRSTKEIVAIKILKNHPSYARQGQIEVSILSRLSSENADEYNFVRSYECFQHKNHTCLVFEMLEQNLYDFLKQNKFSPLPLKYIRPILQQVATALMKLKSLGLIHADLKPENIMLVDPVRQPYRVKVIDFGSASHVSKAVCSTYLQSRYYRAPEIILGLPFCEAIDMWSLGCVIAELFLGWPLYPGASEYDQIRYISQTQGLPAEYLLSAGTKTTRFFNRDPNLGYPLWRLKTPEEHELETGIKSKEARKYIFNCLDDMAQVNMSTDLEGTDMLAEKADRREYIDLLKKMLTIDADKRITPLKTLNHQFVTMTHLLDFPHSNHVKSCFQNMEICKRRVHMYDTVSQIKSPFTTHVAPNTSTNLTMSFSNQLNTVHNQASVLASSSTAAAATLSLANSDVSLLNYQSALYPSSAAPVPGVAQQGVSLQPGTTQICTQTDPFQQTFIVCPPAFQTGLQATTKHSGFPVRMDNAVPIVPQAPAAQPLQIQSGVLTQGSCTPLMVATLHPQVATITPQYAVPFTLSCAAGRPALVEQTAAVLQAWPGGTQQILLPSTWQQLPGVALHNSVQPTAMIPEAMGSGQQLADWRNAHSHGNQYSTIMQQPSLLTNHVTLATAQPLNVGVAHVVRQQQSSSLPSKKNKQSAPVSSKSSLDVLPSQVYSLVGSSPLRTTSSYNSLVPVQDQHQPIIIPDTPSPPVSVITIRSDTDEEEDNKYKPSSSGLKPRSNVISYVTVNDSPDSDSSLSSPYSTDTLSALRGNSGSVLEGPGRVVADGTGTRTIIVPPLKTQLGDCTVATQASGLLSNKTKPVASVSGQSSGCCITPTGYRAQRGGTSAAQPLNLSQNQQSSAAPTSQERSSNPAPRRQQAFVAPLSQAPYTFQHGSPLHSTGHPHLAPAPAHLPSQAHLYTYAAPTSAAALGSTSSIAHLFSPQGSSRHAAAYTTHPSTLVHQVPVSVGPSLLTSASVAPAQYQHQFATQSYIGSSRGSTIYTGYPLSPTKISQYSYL
G protein-coupled receptor kinase 4 (Homo sapiens), sequence (P32298 whole entry, looked up): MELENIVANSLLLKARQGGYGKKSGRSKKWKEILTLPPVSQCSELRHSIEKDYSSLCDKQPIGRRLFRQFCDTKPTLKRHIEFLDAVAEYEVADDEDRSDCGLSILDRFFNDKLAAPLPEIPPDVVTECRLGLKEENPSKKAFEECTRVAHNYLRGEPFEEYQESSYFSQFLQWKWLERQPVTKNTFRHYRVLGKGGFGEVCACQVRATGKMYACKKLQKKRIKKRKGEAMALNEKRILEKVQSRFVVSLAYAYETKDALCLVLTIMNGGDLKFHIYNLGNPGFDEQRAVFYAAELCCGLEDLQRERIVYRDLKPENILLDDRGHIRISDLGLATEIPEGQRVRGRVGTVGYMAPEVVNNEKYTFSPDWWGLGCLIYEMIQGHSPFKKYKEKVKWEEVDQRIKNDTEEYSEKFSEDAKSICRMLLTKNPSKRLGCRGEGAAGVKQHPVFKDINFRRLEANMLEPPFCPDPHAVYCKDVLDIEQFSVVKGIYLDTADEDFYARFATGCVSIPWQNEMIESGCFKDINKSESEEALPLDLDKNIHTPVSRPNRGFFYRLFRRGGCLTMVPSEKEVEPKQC
Mitogen-activated protein kinase 14 (Homo sapiens), sequence (Q16539 whole entry): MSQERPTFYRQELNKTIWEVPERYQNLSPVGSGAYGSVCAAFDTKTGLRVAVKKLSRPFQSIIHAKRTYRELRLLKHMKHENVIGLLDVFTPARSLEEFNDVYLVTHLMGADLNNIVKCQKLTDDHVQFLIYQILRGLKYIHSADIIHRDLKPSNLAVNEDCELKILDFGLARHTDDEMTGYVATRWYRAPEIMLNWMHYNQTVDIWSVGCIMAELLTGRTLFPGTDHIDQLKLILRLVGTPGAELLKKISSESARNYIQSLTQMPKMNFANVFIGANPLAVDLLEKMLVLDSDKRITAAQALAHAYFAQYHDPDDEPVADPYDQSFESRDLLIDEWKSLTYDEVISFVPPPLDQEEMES

| Compound | residual activity [1] | residual activity [2] | residual activity [3] | residual activity [4] | residual activity [5] | residual activity [6] | residual activity [7] | residual activity [8] | residual activity [9] |
| --- | --- | --- | --- | --- | --- | --- | --- | --- | --- |
| COc1cc2c(Oc3ccc(-c4nc5ccccc5s4)cc3)ncnc2cc1OCCCN1CCN(C)CC1 | 84% | 99% | 48% | 96% | 98% | 327% | 19% | 104% | 100% |
| COc1cc2c(Oc3ccc(-c4nc5ccccc5s4)cc3F)ncnc2cc1OCCCN1CCN(C)CC1 | 88% | 85% | 35% | 97% | 94% | 320% | 1% | 93% | 115% |
| COc1cc2c(Oc3ccc(-c4nc5ccccc5s4)cc3)ncnc2cc1OCCCN1CCCC1 | 90% | 83% | 60% | 96% | 83% | 325% | 6% | 91% | 100% |

Source: ChEMBL document CHEMBL1152560, “Substituted 2-arylbenzothiazoles as kinase inhibitors: hit-to-lead optimization” (Bioorg Med Chem, 2009)
